Test results reported in paper PMC5216056 (Nature Communications, 2017).
Values joined by “and” are separate entries in the source; they are usually repeats but may differ in a detail not shown here. Equal entries are not always repeated. Where two headings read alike, the source gives them in different places.

Tests used:
[1] = target: T1, mCB1R (Mus musculus, UniProt P47746); experiment: biochemical; conditions: for Emax: read-out: Emax cAMP mCB1R
T1 construct: from tissue; host or cells: brain of male C57BL/6J mice

[2] = target: T2, hDAGL-α (Homo sapiens, UniProt Q9Y4D2); experiment: Biochemical DAGLα activity assay; conditions: for inhibition at 10 µM: read-out: DAGL % inhibition at 10 µM ± SD
T2 construct: expressed in transfected cells; host or cells: HEK293T (transient), membrane preparation
T2 sequence (Q9Y4D2 1-1042): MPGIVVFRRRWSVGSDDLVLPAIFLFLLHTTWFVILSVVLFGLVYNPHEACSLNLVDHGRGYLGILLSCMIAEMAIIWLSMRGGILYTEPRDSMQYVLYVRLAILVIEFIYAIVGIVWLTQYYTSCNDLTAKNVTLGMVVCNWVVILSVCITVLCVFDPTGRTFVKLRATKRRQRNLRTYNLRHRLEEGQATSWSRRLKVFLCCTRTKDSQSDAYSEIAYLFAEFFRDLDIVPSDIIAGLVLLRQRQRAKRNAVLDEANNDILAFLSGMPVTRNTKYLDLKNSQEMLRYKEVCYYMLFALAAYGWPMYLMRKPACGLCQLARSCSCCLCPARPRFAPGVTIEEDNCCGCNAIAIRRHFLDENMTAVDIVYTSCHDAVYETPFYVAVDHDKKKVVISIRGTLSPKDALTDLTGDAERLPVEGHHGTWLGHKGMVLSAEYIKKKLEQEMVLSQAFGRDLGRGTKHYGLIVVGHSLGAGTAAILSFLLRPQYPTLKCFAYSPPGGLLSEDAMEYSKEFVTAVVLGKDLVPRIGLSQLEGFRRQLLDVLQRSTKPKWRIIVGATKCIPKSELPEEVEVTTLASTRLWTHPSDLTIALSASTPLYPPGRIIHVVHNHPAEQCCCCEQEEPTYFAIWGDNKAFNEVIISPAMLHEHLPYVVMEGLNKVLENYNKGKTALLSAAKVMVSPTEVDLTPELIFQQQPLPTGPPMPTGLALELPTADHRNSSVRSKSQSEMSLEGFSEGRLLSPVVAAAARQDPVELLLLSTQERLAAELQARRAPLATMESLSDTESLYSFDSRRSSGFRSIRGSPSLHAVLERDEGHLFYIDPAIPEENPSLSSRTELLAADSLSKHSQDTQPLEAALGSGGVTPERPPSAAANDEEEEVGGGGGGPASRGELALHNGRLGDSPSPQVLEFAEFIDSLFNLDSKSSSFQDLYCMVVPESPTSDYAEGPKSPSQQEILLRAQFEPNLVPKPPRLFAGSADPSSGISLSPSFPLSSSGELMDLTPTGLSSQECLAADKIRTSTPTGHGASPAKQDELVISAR
Protocol: Cell culture and membrane preparation were performed as previously described. HEK293T cells (source: Dutch Cancer Institute) were grown in DMEM with stable glutamine and phenolred (PAA), 10% New Born Calf serum, penicillin and streptomycin. Cells were passaged every 2–3 days by resuspending in medium and seeding them to appropriate confluence. Membranes were prepared from transiently transfected HEK293T cells. One day prior to transfection 10^7 cells were seeded in a 15 cm petri dish. Cells were transfected by the addition of a 3:1 mixture of polyethyleneimine (60 μg) and plasmid DNA (20 μg) in 2 ml serum-free medium. The medium was refreshed after 24 h, and after 72 h the cells were harvested by suspending them in 20 ml medium. The suspension was centrifuged for 10 min at 1000, rpm, and the supernatant was removed. The cell pellet was stored at −80 °C until use. Cell pellets were thawed on ice and suspended in lysis buffer A (20 mM HEPES, 2 mM DTT, 0.25 M sucrose, 1 mM MgCl2, […] Benzonase). The suspension was homogenized by polytrone (3 × 7 s) and incubated for 30 min on ice. The suspension was subjected to ultracentrifugation (100,000 × g, 30 min, 4 °C, Beckman Coulter, Type Ti70 rotor) to yield the cytosolic fraction in the supernatant and the membrane fraction as a pellet. The pellet was resuspended in lysis buffer B (20 mM HEPES, 2 mM DTT). The protein concentration was determined with Quick Start Bradford assay (Biorad). The protein fractions were diluted to a total protein concentration of 1 mg ml^−1 and stored in small aliquots at −80 °C until use.
hDAGL-α activity was measured by the extent of the hydrolysis of para-nitrophenylbutyrate (PNP-butyrate) by membrane preparations from HEK293T cells (source: Dutch Cancer Institute) transiently transfected with hDAGL-α (ref. [43]). Percentage of inhibition of reference ligands was determined in comparison with an untreated control. Reactions were performed in 50 mM pH 7.2 HEPES buffer with 0.05 μg μl^−1 final protein concentration hDAGL-α transfected protein.

[3] = target: hCB2R (Homo sapiens, UniProt P34972); experiment: cell-based; assay type: cell-based; design: expressed in transfected cells; host or cells: Flp-In-293 (Invitrogen #R750-07), pcDNA5/FRT; conditions: for Emax: read-out: Emax ± SEM pERK hCB2R
[4] = target: mCB2R (Mus musculus, UniProt P47936); experiment: biochemical; assay type: binding; design: from tissue; host or cells: spleen of male C57BL/6J mice
[5] = mouse spleen membranes, read-out: pKi ± SEM mCB2R (converted)

T1 sequence (P47746 whole entry): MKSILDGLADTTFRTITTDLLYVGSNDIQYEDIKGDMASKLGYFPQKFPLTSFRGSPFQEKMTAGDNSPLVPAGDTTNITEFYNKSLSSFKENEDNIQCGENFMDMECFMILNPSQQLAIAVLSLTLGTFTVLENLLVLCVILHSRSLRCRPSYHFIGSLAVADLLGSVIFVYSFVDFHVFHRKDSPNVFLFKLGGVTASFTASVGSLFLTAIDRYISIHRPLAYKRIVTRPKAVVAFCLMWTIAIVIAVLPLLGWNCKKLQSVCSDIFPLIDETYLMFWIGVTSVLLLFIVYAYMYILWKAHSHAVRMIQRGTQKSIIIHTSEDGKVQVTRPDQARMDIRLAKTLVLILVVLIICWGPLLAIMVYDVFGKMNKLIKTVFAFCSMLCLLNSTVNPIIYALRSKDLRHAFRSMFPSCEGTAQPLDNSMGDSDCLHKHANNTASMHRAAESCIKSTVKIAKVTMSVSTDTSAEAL
Sequence of mCB2R (P47936 whole entry): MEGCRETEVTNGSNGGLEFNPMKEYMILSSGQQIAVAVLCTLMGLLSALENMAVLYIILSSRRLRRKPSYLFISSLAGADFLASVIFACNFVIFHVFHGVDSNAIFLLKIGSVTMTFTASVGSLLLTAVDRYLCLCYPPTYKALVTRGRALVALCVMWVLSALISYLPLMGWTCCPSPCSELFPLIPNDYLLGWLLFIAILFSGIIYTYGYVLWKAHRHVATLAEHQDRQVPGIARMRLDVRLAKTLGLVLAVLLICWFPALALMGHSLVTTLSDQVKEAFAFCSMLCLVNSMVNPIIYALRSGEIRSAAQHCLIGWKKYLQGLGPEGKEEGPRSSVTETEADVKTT
Sequence of hCB2R (P34972 whole entry): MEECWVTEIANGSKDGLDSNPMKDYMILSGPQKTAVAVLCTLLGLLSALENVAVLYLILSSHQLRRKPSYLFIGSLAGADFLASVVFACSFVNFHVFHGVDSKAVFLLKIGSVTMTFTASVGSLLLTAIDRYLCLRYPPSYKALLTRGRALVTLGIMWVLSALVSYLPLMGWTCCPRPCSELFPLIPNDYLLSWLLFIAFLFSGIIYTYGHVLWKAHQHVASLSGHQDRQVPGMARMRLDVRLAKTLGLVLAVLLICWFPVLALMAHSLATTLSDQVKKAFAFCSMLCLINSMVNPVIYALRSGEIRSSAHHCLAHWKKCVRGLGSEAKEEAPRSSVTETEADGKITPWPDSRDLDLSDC

Row | Compound | DAGL % inhibition at 10 µM ± SD [2] [%] | pEC50 ± SEM cAMP mCB1R ([1]; mouse brain) | pKi ± SEM mCB2R ([4]; mouse spleen membranes) | Emax cAMP mCB1R [1] | Emax ± SEM pERK hCB2R [3] | pEC50 ± SEM pERK hCB2R [3] | inhibition at 10 µM [2] [%] | other results
1 | SR144528 | -28 ± 11 | – | – | – | – | – | – | Emax cAMP mCB1R ([1]; normalized to 10 µM CP55940): -39%; Emax ± SEM pERK hCB2R ([3]; normalized to 10 µM CP55940): -99 ± 3%
2 | CCCn1c(C)c(C(=O)c2cccc3ccccc23)c2ccccc21 [JWH015] | -8 ± 5 | < 5 | 6.63 ± 0.21 | – | – | – | – | Emax cAMP mCB1R ([1]; normalized to 10 µM CP55940): 29%
3 | CCCC(C)(C)c1ccc2c(c1)OC(C)(C)[C@@H]1CC=C(C)C[C@@H]21 [JWH133] | 30 ± 7 | – | 7.69 ± 0.23 | 11 | 96 ± 13 | 6.19 ± 0.07 | – | pEC50 ± SEM cAMP mCB1R [1]: < 5; CB2R Selectivity (binding, mouse) [4]: 40 fold
4 | CCCCCCC(C)(C)c1ccc([C@@H]2C[C@H](O)CC[C@H]2CCCO)c(O)c1 [CP55940] | – | – | – | – | – | – | 20 ± 16 | EC50 ([1]; pEC50 ± SEM cAMP mCB1R): 0.00603 nM; Emax [1]: 100%; Ki [4, 5]: 0.603 nM
5 | Cc1c(C(=O)NN2CCCCC2)nn(-c2ccc(Cl)cc2Cl)c1-c1ccc(Cl)cc1 [SR141716A] | – | – | – | – | – | – | 20 ± 10 | –
6 | COc1ccc(C(=O)c2c(C)n(CCN3CCOCC3)c3cc(I)ccc23)cc1 [AM630] | 6 ± 12 | < 5 | 7.66 ± 0.23 | 13 | -92 ± 4 | 5.09 ± 0.06 | – | –
7 | Cc1ccc2c(c1)Cc1c(C(=O)NN3CCCCC3)nn(-c3ccc(Cl)cc3Cl)c1-2 [Gp-1a] | – | 5.86 ± 0.42 | 7.68 ± 0.23 | – | – | – | – | Emax cAMP mCB1R ([1]; normalized to 10 µM CP55940): -28%; CB2R Selectivity (binding, mouse) ([4]; 10^(pKi CB2R-pKi CB1R)): 20 fold; Emax ± SEM pERK hCB2R ([3]; normalized to 10 µM CP55940): 5 ± 6%
8 | CCCCCCC(C)(C)c1cc(OC)c(C2=C[C@H]3CC[C@]2(CO)C3(C)C)c(OC)c1 [HU910] | 36 ± 1 | < 5 | 6.88 ± 0.17 | – | – | – | – | Emax cAMP mCB1R ([1]; normalized to 10 µM CP55940): 36%; pEC50 ± SEM pERK hCB2R ([3]; antagonists in presence of EC80 of CP55940): 5.50 ± 0.10 and < 5.5; Emax ± SEM pERK hCB2R ([3]; normalized to 10 µM CP55940): 104 ± 9%
9 | CCCCCCC(C)(C)c1cc(OC)c([C@@H]2C=C(CO)[C@@H]3C[C@H]2C3(C)C)c(OC)c1 [HU308] | – | – | – | – | – | – | 42 ± 3 | EC50 ([1]; pEC50 ± SEM cAMP mCB1R, mouse brain): > 10000 nM; Emax [1]: 10%; Ki [4]: 70.8 nM; Emax [3]: 93 ± 2%
10 | CN1CCCCC1Cn1cc(C(=O)c2cc([N+](=O)[O-])ccc2I)c2ccccc21 (racemic) [(rac)-AM1241] | 3 ± 10 | – | 7.73 ± 0.25 | 21 | 32 ± 12 | 7.6 ± 0.88 | – | pEC50 ± SEM cAMP mCB1R [1]: < 5; CB2R Selectivity (binding, mouse) [4]: 66 fold; CB2R Selectivity pERK [3]: 339
11 | Cc1c(C(=O)c2cccc3ccccc23)c2cccc3c2n1[C@H](CN1CCOCC1)CO3 [WIN55212-2] | -9 ± 12 | – | 7.28 ± 0.17 | – | – | – | – | –
12 | CN1CCCC[C@H]1Cn1cc(C(=O)c2cc([N+](=O)[O-])ccc2I)c2ccccc21 [(S)-AM1241] | 9 ± 9 | 5.43 ± 0.42 | 6.74 ± 0.2 | 16 | 60 ± 11 | 6.92 ± 0.22 | – | CB2R Selectivity (binding, mouse) ([4]; 10^(pKi CB2R-pKi CB1R)): 2 fold
13 | CCCCC/C=C\C/C=C\C/C=C\C/C=C\CCCC(=O)OC(CO)CO [2-AG, 2-arachidonoyl glycerol] | – | – | – | – | – | – | -12 ± 16 | EC50 ([1]; mouse brain, read-out: pEC50 ± SEM cAMP mCB1R (converted)): > 6310 nM and 6920 nM; Ki [4, 5]: 29.5 nM; EC50 ([3]; pEC50 ± SEM pERK hCB2R): 3890 nM and > 3160 nM; Emax [3]: 99 ± 11%
14 | Cc1c(C(=O)NN2CCCCC2)nn(-c2ccc(Cl)cc2Cl)c1-c1ccc(I)cc1 [AM251] | 17 ± 6 | – | – | – | -90 ± 3 | – | – | –
15 | CCCCC/C=C\C/C=C\C/C=C\C/C=C\CCCC(=O)NCCO [Anandamide, N-arachidonoylethanolamine] | – | – | – | – | – | – | 32 ± 22 | Emax [1]: < 70%; Ki [4]: 347 nM; Emax [3]: 62 ± 2%
16 | CN1CCCC[C@@H]1Cn1cc(C(=O)c2cc([N+](=O)[O-])ccc2I)c2ccccc21 [(R)-AM1241] | 10 ± 12 | 5.08 ± 0.16 | 7.59 ± 0.11 | 32 | 75 ± 9 | 7.84 ± 0.29 | – | CB2R Selectivity (binding, mouse) ([4]; 10^(pKi CB2R-pKi CB1R)): 17 fold; CB2R Selectivity pERK ([3]; 10^(pEC50 CB2R-pEC50 CB1R)): 151 fold
